From US20070117864A1, “Composition for preventing and treating hepatoma” (Tokyo University of Agr. & Tech. TLO Co., Ltd., priority 2003, published 2007)

Assays:
AH109A cells = experiment: proliferative activity of hepatoma cells by [3H]thymidine incorporation; format: cell-based, rat
Method: The proliferative activity of the AH109A cells was evaluated by measuring the incorporation of [^3H]thymidine (20 Ci/mmol, New England Nuclear, Boston, USA) into acid-insoluble fraction, namely, DNA [Yagasaki K., Tanabe T., Ishihara K., and Funabiki R., (1992) Modulation of the proliferation of cultured hepatoma cells by urea cycle-related amino acids. In: Murakami, H., Shirahata S., and Tachibanana H., (ed.) Animal Cell Technology: Basic and Applied Aspects. Vol. 4 (pp. 257-263). Kluwer Academic Publisher, Dordrecht/Boston/London]. […]
The plate was washed twice with 400 μl of 10% TCA; the wash solution was then recovered in Maruemu tubes, and was again subjected to centrifugally separation for 5 minutes at 3000 rpm (1500×g), 4° C., and then solubilized in 0.2N NaOH in 0.1% SDS. was added to the 48-well plate and the cells remaining in the Maruemu tubes at the respective rates of 150 μl and 50 μl, and these were allowed to stand for 30 minutes inside an incubator at 37° C., to dissolve the cells completely. […] 5 ml of an NT scintillator (700 ml of toluene, 300 ml of nonion, 4 g of DPO) was added, and 150 μl of 1N HCl was further added thereto, and it was confirmed that the liquid of the preparation thoroughly shaken had become transparent; then, the radioactivity of the preparation was measured with a liquid scintillation spectrophotometer (LS6500; Beckman, Fullerton, Calif., USA). […]

[1] = liver lipid levels in hepatoma-bearing rats; format: in vivo, rat; details: mean ± SEM of 11 rats
Method: Male Donryu rats of four weeks old were purchased from NRC Haruna, Gumma, Japan, and were preliminarily fed for 6 days in quintuple cages in a room with a controlled environment with light period of 8:00 to 20:00, room temperature of 22±1° C., and relative humidity of 60±5%. For the first 3 days, the animals were fed ad libitum with a stock pellet diet (CE-2; CLEA Japan, Tokyo), and for the next 3 days, they were fed a basal diet containing 20% milk casein (20C) (Table 1) ad libitum together with tap water in a glass container. Following the completion of this preparatory raising, the rats were divided into three groups (11 animals per group) with equal average body weights of the respective groups were equal, and 1.0×10^7 of AH109A cells suspended in PBS (−) were transplanted in the back of all the rats. From the time immediately after transplantation, in the respective experimental groups, the animals were fed the experimental diets shown in Table 2.
During the experimental period, the body weight, food intake and solid tumor size (sum of length, width and height) were measured everyday. On the day that the animals were killed, animals were deprived of experimental diets at 9:00, but freely given water until they were killed 4 hours later. Blood was collected from carotid, and the liver and solid tumors were excised. The collected blood was allowed to stand for approximately 2 hours at room temperature, and then centrifuged for 10 minutes at 3000 rpm (1750×g), 4° C., to obtain serum. This blood serum was frozen and stored at −20° C. The livers and solid tumors were washed with physiological saline, blotted on filter paper, and weighed. Furthermore, feces from the 19th to 21st days after transplantation were collected, and these feces were frozen and stored at −20° C. for the measurement of the amounts of steroids excreted from the body.
Total lipids were extracted from the liver for the measurement of lipid levels by the method of Folch et al. (FOLCH J, LEES M, SLOAN-STANLEY G H, A simple method for the isolation and purification of total lipids from animal tissues, J. Biol. Chem. 226: 497-509, 1957). Approximately 0.5 g of liver tissue was weighed out, this tissue was homogenized using a Polytron homogenizer (Type PT10/35, Kinematica, Switzerland) in 5 ml of methanol; then, 10 ml of chloroform was added and mixed, the resulting preparation was allowed to stand overnight, and then filtered. […]
The Ch content was measured by the Zak method (Zak B., Simple rapid microtechnic for serum total cholesterol, Am. J. Clin. Path. 27, 583-588, 1957). […] The resulting mixture was agitated and this preparation was allowed to stand until cool; then, the absorbance at 560 nm thereof was measured with Ch as a standard. […]

## O=C1OCC(Cc2cccc(O)c2)C1Cc1cccc(O)c1 (stereo not drawn) [Enterolactone, enterolactone]
AH109A cells; ENL 50 μM, in vitro
  proliferation of AH109A cells: almost completely suppressed
AH109A cells; in vitro comparison
  inhibitory effect on proliferation, AH109A cells compared with normal M-cells: stronger inhibitory effect against AH109A cells than normal M-cells
[1]; diet 10 ppm
  Liver lipid level Total cholesterol: 5.15 ± 0.43 μmol/g liver
  Liver lipid level Triglyceride: 43.8 ± 3.83 μmol/g liver
[1]; diet 100 ppm
  Liver lipid level Total cholesterol: 5.47 ± 0.40 μmol/g liver
  Liver lipid level Triglyceride: 42.8 ± 7.05 μmol/g liver
